In brackets after ≈: the same amount, converted by molar mass.
Experiments:
Type in all cases: functional
Conditions in all cases: Homo sapiens
E6SM [1] = assay: Tested for minimum inhibitory concentration against HSV-2 ([…] strain) in E6SM cells
E6SM [2] = assay: Tested for minimum inhibitory concentration against HSV-1 (KOS strain) in E6SM cells
HeLa [3] = assay: Tested for minimum inhibitory concentration against RSV (respiratory syncytial virus) in HeLa cells
E6SM [4] = assay: Tested for minimum inhibitory concentration against Vaccinia virus in E6SM cells
HeLa [5] = assay: Tested for minimum cytotoxic concentration on RSV (respiratory syncytial virus)-induced cytopathicity in HeLa cells
E6SM [6] = assay: Tested for minimum cytotoxic concentration on virus-induced cytopathicity in E6SM cells
E6SM [7] = assay: Tested for minimum inhibitory concentration against vesicular stomatitis virus (VSV) in E6SM cells.
E6SM [8] = assay: Tested for minimum inhibitory concentration against vesicular stomatitis virus (VSV) in E6SM cells
HeLa [9] = assay: Tested for minimum inhibitory concentration against RSV in HeLa cells
HeLa [10] = assay: Tested for minimum inhibitor concentration against RSV in HeLa cells
E6SM [11] = assay: Tested for minimum inhibitor concentration against vesicular stomatitis virus (VSV) in E6SM cells
E6SM [12] = assay: Tested for minimum inhibitor concentration against vesicular stomatitis virus (VSV) in E6SM cells.

Structure (SMILES)	MIC (E6SM [1]) [µg/mL]	MIC (E6SM [2]) [µg/mL]	MIC (HeLa [3]) [µg/mL]	MIC (E6SM [4]) [µg/mL]	MCC (HeLa [5]) [µg/mL]	MCC (E6SM [6]) [µg/mL]	MIC (E6SM [7]) [µg/mL]	MIC (E6SM [8]) [µg/mL]	MIC (HeLa [9]) [µg/mL]	MIC (HeLa [10]) [µg/mL]	MIC (E6SM [11]) [µg/mL]	MIC (E6SM [12]) [µg/mL]
C=Cc1nc2c(N)ncnc2n1C1CCC(CO)O1 (configuration not stated)	> 20	> 100										
Cc1nc2c(N)ncnc2n1C1CCC(CO)O1 (configuration not stated)	> 20	> 100										
Cc1ncnc2c1ncn2[C@@H]1O[C@H](CO)[C@@H](O)[C@H]1O		0.4 (≈ 1.5 µM)	0.4 (≈ 1.5 µM)	0.04 (≈ 0.15 µM)	0.8	1	0.4 (≈ 1.5 µM)					
Nc1nccc2c1ncn2[C@@H]1O[C@H](CO)[C@@H](O)[C@H]1O		> 400		2 (≈ 7.51 µM)		> 400		0.7 (≈ 2.63 µM)				
C=Cc1nc2c(N)ncnc2n1[C@@H]1O[C@H](CO)[C@@H](O)[C@H]1O	40 (≈ 136 µM)	2 (≈ 6.82 µM)		7 (≈ 23.9 µM)	70	> 400			4 (≈ 13.6 µM)			
CCc1nc(N)c2ncn(C3O[C@H](CO)[C@@H](O)[C@H]3O)c2n1 (some centres not stated)		> 10		7 (≈ 23.7 µM)	4	> 10				0.8 (≈ 2.71 µM)	> 10	
C=Cc1ncnc2c1ncn2C1O[C@H](CO)[C@@H](O)[C@H]1O (some centres not stated)		2 (≈ 7.19 µM)		> 4	4	10	> 4		> 4			
CCc1nc2c(N)ncnc2n1C1O[C@H](CO)[C@@H](O)[C@H]1O (some centres not stated)		> 100		0.2 (≈ 0.677 µM)	100	> 100		> 200	10 (≈ 33.9 µM)			
Cc1nc2c(N)ncnc2n1C1O[C@H](CO)[C@@H](O)[C@H]1O (some centres not stated)		> 100		0.2 (≈ 0.711 µM)	20	> 200		> 200	4 (≈ 14.2 µM)			
O=c1[nH]c(=O)n([C@H]2C[C@H](O)[C@@H](CO)O2)cc1/C=C/Br [BRIVUDINE]		0.02 (≈ 0.06 µM)		0.4 (≈ 1.2 µM)		> 400						> 400
NC(=O)c1ncn([C@@H]2O[C@H](CO)[C@@H](O)[C@H]2O)n1 [RIBAVIRIN]		> 300		70 (≈ 287 µM)		> 400					20 (≈ 81.9 µM)	

— ChEMBL document CHEMBL1126836, “Antiviral activity of C-alkylated purine nucleosides obtained by cross-coupling with tetraalkyltin reagents” (1993)
